Broadly, the IC50 is the concentration at which inhibition is half-maximal.

Where two headings read alike, the source gives them in different places.

Test [1] has as its target T1, FGFR1 (Homo sapiens, UniProt P11362).
T1 construct: made in house; host or cells: Sf9 insect cells, baculovirus (pFastBacHis), by the same method as VEGFR2
In words: Inhibition against receptor tyrosine kinase activity (HTRF), FGFR1. It counts as biochemical. The source says:
This assay is used to determine inhibition of a test substance on tyrosine kinase activity. DNA coding for the cytoplasmic domain of VEGFR2 is obtained by total cDNA synthesis (Edwards M, International Biotechnology Lab 5(3), 19-25, 1987) or by cloning. Expression in an appropriate expression system can produce a polypeptide with tyrosine kinase activity. […] For VEGFR2 (GenBank Accession No. L04947), the 1.7 kb DNA fragment described by Terman et al. (Oncogene, 6(9), 1677-1683, 1991), coding for the cytoplasmic domain, beginning with lysine 791 and including the termination codon, was isolated from a human placental cDNA library (purchased from Clontech Laboratories, Inc.) and cloned in a Baculovirus expression vector (pFastBacHis, purchased from GIBCO BRL). The recombinant construct was transfected into insect cells (Spondoptea frugiperda9 (Sf9)) to prepare a recombinant Baculovirus. (Instructions for preparation and use of recombinant Baculovirus may be found in standard texts, such as “Bac-To-Bac Baculovirus Expression System” (GIBCO BRL).) The cytoplasmic fragment starting from lysine 398 (FGFR1, GenBank Accession No. X52833), the cytoplasmic fragment starting from lysine 558 (PDGFRβ, GenBank Accession No. M21616) or the cytoplasmic fragment starting from lysine 974 (HGFR, GenBank Accession No. J02958) may be cloned and expressed by the same method for use in assays for other tyrosine kinases. EGFR was purchased from Sigma Co. (Product No. E-2645).
(§1) For expression of the VEGFR2 tyrosine kinase, Sf9 cells were infected with the VEGFR2 recombinant virus and collected after 48 hours. The collected cells were rinsed with ice-cooled phosphate buffered saline (PBS) and then resuspended using 20 ml of ice-cooled Lysis Buffer (50 mM Tris-HCl (pH 8.5), 5 mM 2-mercaptoethanol, 100 mM KCl, 1 mM phenylmethylsulfonyl fluoride, 1% (v/v) NP-40) per 1.5×10^8 cells. The suspension was centrifuged at 12,000 rpm for 30 minutes at 4° C. and the supernatant was obtained. The supernatant was added to a Ni-NTA agarose column (3 ml, purchased from Qiagen) equilibrated with Buffer A {20 mM Tris-HCl (pH 8.5), 5 mM 2-mercaptoethanol, 500 mM KCl, 20 mM imidazole, 10% (v/v) glycerol}. The column was washed with 30 ml of Buffer A, and then with 6 ml of Buffer B {20 mM Tris-HCl (pH 8.5), 5 mM 2-mercaptoethanol, 1M KCl, 10% (v/v) glycerol}, and finally with 6 ml of Buffer A. After washing, it was eluted with 6 ml of Buffer C {20 mM Tris-HCl (pH 8.5), 5 mM 2-mercaptoethanol, 100 mM KCl, 100 mM imidazole, 10% (v/v) glycerol}. The eluate was placed on a dialysis membrane (purchased from Spectrum Laboratories) and dialyzed with a dialysis buffer {20 mM Tris-HCl (pH 7.5), 10% (v/v) glycerol, 1 mM dithiothreitol, 0.1 mM Na3VO4, 0.1 mM EGTA}. After dialysis, it was supplied for SDS-electrophoresis, and the recombinant protein (His6-VEGFR2, cytoplasmic domain of VEGFR2 fused with 6 histidine residues at the N-terminus) detected at a molecular weight of approximately 100 kDa with Coumassie Brilliant Blue staining was assayed using BSA (bovine serum albumin, purchased from Sigma Co.) as the standard substance, and stored at −80° C. until use. Using the same method for the cytoplasmic domains of FGFR1, PDGFRβ and HGFR yielded respective recombinant proteins fused with 6 histidine residues at the N-terminal (His6-FGFR1, His6-PDGFRβ or His6-HGFR).
The tyrosine kinase reaction was conducted as follows. In the case of VEGFR2, for example, 10 μl of a kinase reaction solution {200 mM Hepes (pH 7.4), 80 mM MgCl2, 16 mM MnCl2, 2 mM Na3VO4}, 250 ng of biotin-bound poly(Glu4:Tyr1) (biotin-poly(GT), purchased from CIS Diagnostics Co.) (6 μl of a 15-fold dilution with distilled water), 15 ng of His6-VEGFR2 (10 μl of a 240-fold dilution with 0.4% BSA solution) and the test substance dissolved in dimethyl sulfoxide (4 μl of a 100-fold dilution with 0.1% BSA solution) were added into each well of a 96-well round-bottom plate (NUNC Co., Product No. 163320), to a total of 30 μl. […]

The target in test [2] is T2, VEGFR2 (Homo sapiens, UniProt P35968).
T2 construct: coding for the cytoplasmic domain, beginning with lysine 791 and including the termination codon; made in house; host or cells: Sf9 insect cells, baculovirus (pFastBacHis)
T2 sequence (P35968 786-1356 limits assumed): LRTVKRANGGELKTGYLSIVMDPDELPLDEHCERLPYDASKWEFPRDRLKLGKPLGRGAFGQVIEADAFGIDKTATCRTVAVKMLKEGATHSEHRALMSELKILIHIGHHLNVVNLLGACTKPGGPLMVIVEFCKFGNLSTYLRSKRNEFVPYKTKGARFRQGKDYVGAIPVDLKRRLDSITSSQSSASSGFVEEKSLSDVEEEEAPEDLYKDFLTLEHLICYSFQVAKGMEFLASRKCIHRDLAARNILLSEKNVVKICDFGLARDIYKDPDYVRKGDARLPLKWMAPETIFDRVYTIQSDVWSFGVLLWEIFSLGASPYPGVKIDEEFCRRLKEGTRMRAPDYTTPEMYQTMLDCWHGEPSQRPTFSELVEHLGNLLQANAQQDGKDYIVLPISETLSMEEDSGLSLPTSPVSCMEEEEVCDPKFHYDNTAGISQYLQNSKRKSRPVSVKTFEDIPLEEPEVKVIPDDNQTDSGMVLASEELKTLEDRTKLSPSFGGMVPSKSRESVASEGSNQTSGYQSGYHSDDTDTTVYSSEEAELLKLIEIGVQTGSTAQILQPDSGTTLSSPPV
In words: Inhibition against receptor tyrosine kinase activity (HTRF), VEGFR2. It counts as biochemical. The method, then: This assay is used to determine inhibition of a test substance on tyrosine kinase activity. […] Expression in an appropriate expression system can produce a polypeptide with tyrosine kinase activity. […] The recombinant construct was transfected into insect cells (Spondoptea frugiperda9 (Sf9)) to prepare a recombinant Baculovirus.
as §1, with “After dialysis, it was supplied for SDS-electrophoresis, and the recombinant protein (His6-VEGFR2, cytoplasmic domain of VEGFR2 fused with 6 histidine residues at the N-terminus) detected at a molecular weight of approximately 100 kDa with Coumassie Brilliant Blue staining was assayed using BSA (bovine serum albumin, purchased from Sigma Co.) as the standard substance, and stored at −80° C. until use.” left out
The tyrosine kinase reaction was conducted as follows. […] Next, 10 μl of 4 μM ATP (diluted with distilled water) was added prior to incubation at 30° C. for 10 minutes, and then 10 μl of 500 mM EDTA (pH 8.0) was added.
The tyrosine phosphorylation rate for the biotin-poly(GT) was expressed as the delta F % value as described in the HTRF Standard Experiment Methods text by CIS Diagnostics Co. The delta F % value in the presence of the test substance was determined as a ratio (%) with the delta F % value with addition of His6-VEGFR2 in the absence of the test substance defined as 100% and the delta F % value in the absence of both the test substance and His6-VEGFR2 defined as 0%.
On the technique in general: Time-resolved FRET reads energy transfer from a long-lived donor to a nearby acceptor.

The mark [3] stands for this setting: His6-FGFR1 cytoplasmic domain, biotin-poly(GT), HTRF, read-out: FGFR1 kinase IC50.
Setting [4] is: His6-VEGFR2 cytoplasmic domain, biotin-poly(GT), HTRF, read-out: VEGFR2 kinase IC50.

T1 sequence (P11362 398-822 limits assumed): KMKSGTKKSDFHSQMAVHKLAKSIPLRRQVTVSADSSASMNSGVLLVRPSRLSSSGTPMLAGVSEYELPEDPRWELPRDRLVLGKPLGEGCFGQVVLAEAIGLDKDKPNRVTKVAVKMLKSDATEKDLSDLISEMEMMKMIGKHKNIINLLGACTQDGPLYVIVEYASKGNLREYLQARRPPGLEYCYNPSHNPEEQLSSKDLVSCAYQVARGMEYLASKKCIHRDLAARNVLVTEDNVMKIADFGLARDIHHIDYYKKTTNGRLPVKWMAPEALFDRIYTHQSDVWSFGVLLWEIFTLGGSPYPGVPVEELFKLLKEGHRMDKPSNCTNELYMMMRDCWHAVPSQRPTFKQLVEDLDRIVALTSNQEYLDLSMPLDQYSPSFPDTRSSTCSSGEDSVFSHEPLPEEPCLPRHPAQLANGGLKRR

As to `CNC(=O)n1ccc2cc(Oc3ccnc(NC(=O)NCC(=O)N4CCCC4)c3)ccc21` [Example 7, 5-(2-(3-(2-Oxo-2-(pyrrolidin-1-yl)ethyl)ureido)pyridin-4-yloxy)-1H-indole-1-carboxylic acid methylamide], the IC50 in test [1] (setting [3]) is 26 nM; in test [2] (setting [4]), 8 nM.

As to `CNC(=O)n1ccc2cc(Oc3ccnc(NC(=O)NCC(N)=O)c3)ccc21` [Example 11, 5-(2-(3-Carbamoylmethylureido)pyridin-4-yloxy)-1H-indole-1-carboxylic acid methylamide], the IC50 in test [1] (setting [3]) stood at 47 nM; in test [2] (setting [4]), 3 nM.

On to `CNC(=O)n1ccc2cc(Oc3ccnc(NC(=O)N[C@@H](CO)C(=O)N4CCCC4)c3)ccc21` [Example 18, 5-(2-(3-((1S)-1-Hydroxymethyl-2-oxo-2-pyrrolidin-1-ylethyl)ureido)pyridin-4-yloxy)-1H-indole-1-carboxylic acid methylamide], for which the 50% inhibitory concentration (IC50) in test [1] (setting [3]) is 70 nM; in test [2] (setting [4]) it was 3 nM.

In the case of `CNC(=O)n1ccc2cc(Oc3ccnc(NC(=O)NCCCC(=O)N4CCCC4)c3)ccc21` [Example 32, 5-(2-(3-(4-Oxo-4-(pyrrolidin-1-yl)butyl)ureido)pyridin-4-yloxy)-1H-indole-1-carboxylic acid methylamide], the 50% inhibitory concentration (IC50) stood at 16 nM in test [1] (setting [3]) and 9.3 nM in test [2] (setting [4]).

Take `CNC(=O)n1ccc2cc(Oc3ccnc(NC(=O)NCCCC(=O)NC4CC4)c3)ccc21` [Example 33, 5-(2-(3-(3-(Cyclopropylcarbamoyl)propyl)ureido)pyridin-4-yloxy)-1H-indole-1-carboxylic acid methylamide]: the figures for the IC50 in test [1] (setting [3]) and in test [2] (setting [4]) were 12 nM and 7.1 nM, respectively.

Consider `CNC(=O)n1ccc2cc(Oc3ccnc(NC(=O)NCCCC(=O)N4CCC(C)(O)CC4)c3)ccc21` [Example 34, 5-(2-(3-(4-(4-Hydroxy-4-methylpiperidin-1-yl)-4-oxobutyl)ureido)pyridin-4-yloxy)-1H-indole-1-carboxylic acid methylamide], for which the IC50 in test [1] (setting [3]) came to 22 nM; in test [2] (setting [4]), 8.4 nM.

As for `CNC(=O)CCCNC(=O)Nc1cc(Oc2ccc3c(ccn3C(=O)NC)c2)ccn1` [Example 36, 5-(2-(3-(3-(Methylcarbamoyl)propyl)ureido)pyridin-4-yloxy)-1H-indole-1-carboxylic acid methylamide], the results for the IC50 in test [1] (setting [3]) and in test [2] (setting [4]) were 16 nM and 3.4 nM, respectively.

For the compound `CNC(=O)n1ccc2cc(Oc3ccnc(NC(=O)N4CCCC4)c3)ccc21` [Example 37, N1-Methyl-5-(2-(pyrrolidin-1-ylcarbonyl)amino-4-pyridyl)oxy-1H-1-indolecarboxamide], the IC50 came to 1.2 nM in test [1] (setting [3]) and 4.8 nM in test [2] (setting [4]).

As for `CNC(=O)n1ccc2cc(Oc3ccnc(NC(=O)N4CCC(=O)CC4)c3)ccc21` [Example 40, N1-methyl-5-(2-(4-oxopiperidin-1-ylcarbonyl)amino-4-pyridyl)oxy-1H-1-indolecarboxamide], the IC50 came to 6.9 nM in test [1] and 5.7 nM in test [2].

On to `CNC(=O)CCCC1CCN(C(=O)Nc2cc(Oc3ccc4c(ccn4C(=O)NC)c3)ccn2)CC1` [Example 43, 5-(2-(((4-(3-Methylcarbamoylpropyl)piperidin-1-yl)carbonyl)amino)pyridin-4-yloxy)-1H-indole-1-carboxylic acid methylamide], for which the IC50 in test [1] (setting [3]) worked out at 18 nM; in test [2] (setting [4]), 6.4 nM.

As for `CNC(=O)n1ccc2cc(Oc3ccnc(NC(=O)N4CCC(CCCC(N)=O)CC4)c3)ccc21` [Example 44, 5-(2-(((4-(3-Carbamoylpropyl)piperidin-1-yl)carbonyl)amino)pyridin-4-yloxy)-1H-indole-1-carboxylic acid methylamide], the values for the IC50 in test [1] (setting [3]) and in test [2] (setting [4]) were 14 nM and 7.7 nM, respectively.

Take `CNC(=O)n1ccc2cc(Oc3ccnc(NC(=O)NCCCS(C)(=O)=O)c3)ccc21` [Example 50, N1-Methyl-5-(2-((3-methylsulfonylpropylamino)carbonyl)amino-4-pyridyl)-oxy-1H-1-indolecarboxamide]: the IC50 in test [1] (setting [3]) amounted to 13 nM; in test [2] (setting [4]), 5 nM.

Regarding `O=C(Nc1cc(Oc2ccc3c(ccn3C(=O)NC3CC3)c2)ccn1)N1CCC(N2CCCC2)CC1` [Example 68, N1-Cyclopropyl-5-(2-(((4-(pyrrolidin-1-yl)piperidin-1-yl)carbonyl)amino)pyridin-4-yloxy)-1H-1-indolecarboxamide], the results for the IC50 in test [1] (setting [3]) and in test [2] (setting [4]) were 52 nM and 37 nM, respectively.

As to `CCNC(=O)n1ccc2cc(Oc3ccnc(NC(=O)N4CCC(O)CC4)c3)ccc21` [Example 79, N1-Ethyl-5-(2-((4-hydroxypiperidin-1-yl)carbonyl)amino-4-pyridyl)oxy-1H-1-indolecarboxamide], the values for the IC50 in test [1] (setting [3]) and in test [2] (setting [4]) were 25 nM and 9.8 nM, respectively.

Values taken from patent US20060004029A1, “Nitrogen-containing aromatic derivatives” (priority 2003, published 2006).
